Experiments:
E2F4-deficient MEFs = conditions: earlier work of the inventors (Ma et al., 2004); cited from earlier work
[1] = test system: 8226-s, 8226-dox40 and 8226-MR20; test: PARP cleavage western in drug sensitive and resistant 8226 lines; assay type: cell-based, human; conditions: 24 hours; 10 μM cisplatin or 10, 20 or 40 μM HLM006474
Description: Cells were collected 24 hours post drug exposure and extracts subjected to western blotting using antibodies to the indicated proteins. Cleavage of PARP indicates apoptosis.

SMILES | sensitivity of E2F4-deficient MEFs to other drugs (E2F4-deficient MEFs) | PARP cleavage (apoptosis) in sensitive versus resistant lines [1]
N.N.[Cl][Pt][Cl] [cisplatin, reference compound] | more sensitive | Minimal PARP cleavage
COc1cc([C@@H]2c3cc4c(cc3[C@@H](O[C@@H]3O[C@@H]5CO[C@@H](C)O[C@H]5[C@H](O)[C@H]3O)[C@H]3COC(=O)[C@H]23)OCO4)cc(OC)c1O [VP16, etoposide] | more sensitive | –
CC(C)(C)c1cnc(CSc2cnc(NC(=O)C3CCNCC3)s2)o1 [SNS-032] | more sensitive | –
CC[C@H](CO)Nc1nc(NCc2ccccc2)c2ncn(C(C)C)c2n1 [roscovitine] | more sensitive | –
CN1CC[C@H](c2c(O)cc(O)c3c(=O)cc(-c4ccccc4Cl)oc23)[C@H](O)C1 [flavopiridol] | more sensitive | –
